Experimental data taken from patent US20220111034A1, “VIRUS COMPOSITIONS” (priority 2019, published 2022).

Columns and labels:
σ1-α-SA complex = target: T1, σ1-α-SA complex (Reovirus type 3, UniProt P03528); assay: FD-based AFM single-virus force spectroscopy on α-SA-coated model surfaces; type: binding; conditions: injection of 1 mM free glycan, FIG. 3b
T1 construct: made in house; host or cells: L929 cells (virus-infected)
T1 sequence (P03528 1-455): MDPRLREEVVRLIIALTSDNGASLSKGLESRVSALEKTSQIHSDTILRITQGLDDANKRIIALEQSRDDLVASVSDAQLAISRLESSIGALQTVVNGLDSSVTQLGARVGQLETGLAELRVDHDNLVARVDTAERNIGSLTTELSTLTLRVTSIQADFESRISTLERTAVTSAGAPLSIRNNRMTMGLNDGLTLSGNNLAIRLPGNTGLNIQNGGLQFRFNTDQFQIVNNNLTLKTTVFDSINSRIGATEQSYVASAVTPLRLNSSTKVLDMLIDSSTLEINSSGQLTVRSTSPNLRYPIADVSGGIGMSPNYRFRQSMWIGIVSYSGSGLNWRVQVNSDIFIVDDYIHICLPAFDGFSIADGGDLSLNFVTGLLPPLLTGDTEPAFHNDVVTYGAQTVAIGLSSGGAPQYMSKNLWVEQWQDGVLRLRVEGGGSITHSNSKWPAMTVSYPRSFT
Protocol: NHS-PEG27-acetal linkers were used to functionalize AFM tips as described (Gruber. Crosslinkers and Protocols for AFM Tip Functionalization. https://wwwjku.at/institut-fuer-biophysik/forschung/linked, 2018; Wildling et al. Linking of sensor molecules with amino groups to aminofunctionalized AFM tips. Bioconjug. Chem. 2011, vol. 22, 1239-1248). AFM tips (PFQNM-LC and MSCT probes, Bruker) were immersed in chloroform for 10 min, rinsed with ethanol, dried with a stream of filtered nitrogen, cleaned for 10 min using an ultraviolet radiation and ozone (UV-0) cleaner (Jetlight), and immersed overnight in an ethanolamine solution (3.3 g of ethanolamine hydrochloride in 6.6 mL of DMSO). The cantilevers were washed three times with DMSO, and two times with ethanol and dried with nitrogen. To ensure a low grafting density of the linker on the AFM tip, 1 mg of acetal-PEG27-NHS was diluted in 0.5 mL of chloroform with 30 μL of […] (Gruber, supra; Wildling et al., supra). Ethanolamine-coated cantilevers were immersed for 2 h in this solution, washed three times with chloroform, and dried with nitrogen. Cantilevers were then immersed for 10 min in 1% citric acid in milliQ water, washed three times with milliQ water, and dried with nitrogen. Virus solution (80 μL at ˜10^8 to 10^9 particles mL^−1) was pipetted onto the tips placed on Parafilm (Bemis NA) in a small plastic dish stored within an icebox. A freshly prepared solution of NaCNBH3 (2 μL at ˜6% wt. in 0.1 M NaOH(aq)) was gently mixed into the virus solution, and the cantilever chips were gently positioned with the cantilevers extending into the virus drop. The icebox was incubated at 4° C. for 1 h. Then, 5 μL of 1 M ethanolamine solution (pH 8) was gently mixed into the drop to quench the reaction. The icebox was incubated at 4° C. for an additional 10 min, and the cantilever chips were removed, washed three times in ice-cold PBS, and stored in individual wells of a multiwell dish containing 2 mL of ice-cold virus buffer (150 mM NaCl, 15 mM MgCl2, 10 mM Tris, pH adjusted to 7.4) per well until used in AFM experiments. […]

Mice = assay: Infection of mice by reovirus (Example 7); type: in vivo; conditions: co-administered with the virus

| Molecule | competition with T3SA+ binding to SA (σ1-α-SA complex) | effect on infectivity of T3SA+ in mice (Mice) | effect on infectivity of T3SA− in mice (Mice) |
| --- | --- | --- | --- |
| CC(=O)N[C@H]1[C@H](O[C@H]2[C@@H](O)[C@@H](CO)O[C@@H](O[C@H]3[C@H](O)[C@@H](O)C(O)O[C@@H]3CO)[C@@H]2O)O[C@H](CO)[C@@H](O[C@@H]2O[C@H](CO)[C@H](O)[C@H](O)[C@H]2O)[C@@H]1O (mixture of isomers) [LNnT, lacto-N-neotetraose, reference compound] | but not LNnT strongly competed | does not affect infectivity | – |
| CC(=O)N[C@H]1[C@H]([C@H](O)[C@H](O)CO)OC(O)(C(=O)O)C[C@@H]1O (some centres unmarked) [Neu5Ac, N-acetylneuraminic acid] | strongly competed | significantly increase infectivity | do not affect infectivity |
| sialyl-lacto-N-tetraose a [LSTa] | strongly competed | significantly increase infectivity | do not affect infectivity |
